Data on one compound can be found in patent US20220118070A1, “CANCER THERAPY BY MODIFYING NEOANTIGEN EXPRESSION” (priority 2019, published 2022).

For assay [1], the system named is interaction of snRNA with E2F1. The assay is described as follows: Anti-E2F1 RNA immunoprecipitation (RIP), co-immunoprecipitating snRNA by qRT-PCR. Format: cell-based. Particulars: 5 μM PRMT5 inhibitor; U2OS, HCT116 and MCF7 cells; FIGS. 3B, E and F. Here is the method: B) U2OS cells were treated with 5 μM PRMT5 inhibitor (P5 inh) as indicated, prior to performing an anti-E2F1 RIP. Co-immunoprecipitating U6 (i) and U4 (ii) snRNAs were identified with specific primers by qRT-PCR. Input protein levels were determined by immunoblot (iii). n=3
E) HCT116 cells were treated with 5 μM PRMT5 inhibitor (P5 inh) where indicated, prior to performing an anti-E2F1 RIP. Co-immunoprecipitated U1 (i) and U6 (ii) snRNA were detected by qRT-PCR.
F) As above, though the experiment was performed in MCF7 cells.
A) U2OS cells (i) and HCT116 cells (ii) were transfected for 96 h with 25 nM non-targeting (siNT) or p100/TSN specific siRNA, prior to lysis in RIP buffer. Cell extracts were immunoprecipitated with E2F1 antibody and co-immunoprecipitating RNA was reverse transcribed prior to QPCR analysis with primers against U5 (i) and U6 (ii) snRNAs as indicated. Input protein levels were determined by immunoblot.
RNA was isolated from cells using TRIzol (Thermo Fisher) according to the manufacturer's instructions. 1 μg of total RNA was used for cDNA synthesis. For standard mRNA analysis oligo(d)T20 (Invitrogen) was added. […] Results were expressed as average (mean) fold change compared to control treatments using the ΔΔCt method from three biological repeat samples. […]

The test system of a further assay is SENP7 RNA variants. The assay is described as follows: qRT-PCR of SENP7 transcript variants in treated cells. Particulars: 5 μM, 72 h; U2OS and HCT116 cells; FIGS. 4D and 4E. Format: cell-based. As for the experimental part: D) U2OS cells were treated for 72 h with 5 μM PRMT5 inhibitor (P5 inh). RNA was then isolated from cells and analysed by qRT-PCR using primers targeting specific SENP7 transcript variants or total SENP7 RNA. […] E) As above, though the experiment was performed in HCT116 cells. n=4 RNA was isolated from cells using TRIzol (Thermo Fisher) according to the manufacturer's instructions. 1 μg of total RNA was used for cDNA synthesis. For standard mRNA analysis oligo(d)T20 (Invitrogen) was added. For splice variant analysis, RNA was DNAse treated (Sigma-Aldrich) prior to cDNA synthesis using random hexamers (Invitrogen). M-MLV reverse transcriptase (Promega) was used as per the manufacturer's instructions. qRT-PCR was carried out in triplicate using the indicated primer pairs and Brilliant III SYBR Green QPCR Master Mix (Stratagene) on an MX3005P (Agilent) QPCR instrument. Results were expressed as average (mean) fold change compared to control treatments using the ΔΔCt method from three biological repeat samples. GAPDH or actin primer sets were used as an internal calibrator. Error bars represent standard error unless otherwise indicated.
(Quantitative PCR measures a nucleic acid by following its amplification.)

Assay [2] deals with interaction between E2F1 and SENP7 V5 RNA. The assay is described as follows: Anti-E2F1 RIP, co-immunoprecipitating SENP7 V5 transcripts by qRT-PCR. Format: cell-based. The following applies: 5 μM; HCT116 cells; FIG. 4C. Here is the method:
C) HCT116 cells were treated with 5 μM PRMT5 inhibitor (P5 inh) where indicated prior to performing an anti-E2F1 RIP. Co-immunoprecipitating SENP7 V5 transcripts were analysed by qRT-PCR.
RNA was isolated from cells using TRIzol (Thermo Fisher) according to the manufacturer's instructions. 1 μg of total RNA was used for cDNA synthesis. For standard mRNA analysis oligo(d)T20 (Invitrogen) was added. For splice variant analysis, RNA was DNAse treated (Sigma-Aldrich) prior to cDNA synthesis using random hexamers (Invitrogen). M-MLV reverse transcriptase (Promega) was used as per the manufacturer's instructions. qRT-PCR was carried out in triplicate using the indicated primer pairs and Brilliant III SYBR Green QPCR Master Mix (Stratagene) on an MX3005P (Agilent) QPCR instrument. Results were expressed as average (mean) fold change compared to control treatments using the ΔΔCt method from three biological repeat samples. GAPDH or actin primer sets were used as an internal calibrator. Error bars represent standard error unless otherwise indicated.
Cells were washed once with PBS before UV cross-linking at 900 mJ/cm^2 using a Stratalinker (Stratagene). RIP lysis buffer (50 mM Tris-HCl pH 8.0, 150 mM NaCl, 1 mM MgCl2, 10% glycerol [v/v], 1% NP-40 [v/v], 1 mM DTT, 0.2 mM sodium orthovanadate and protease inhibitor cocktails) was added directly to the plate, on ice. […]

Assay [3] deals with chromatin-associated HP1a. The assay is described as follows: ChIP with anti-HP1a antibody on the p73 promoter. Format: cell-based. The following applies: PRMT5 inhibitor 24 h or 48 h; U2OS cells; FIG. 6B. Here is the method: B) As above, though cells were treated with the PRMT5 inhibitor (P5 inh) for 24 h or 48 h as indicated. ChIP analysis was performed with anti-HP1a specific or control antibodies (i).
C) U2OS cells were transfected with SENP7 siRNA or non-targeting siRNA (siNT) for 96 h as indicated. Cells were then prepared for ChIP analysis as above (i).
(§1) ChIP was performed as described previously [(29) or (30)]. Antibodies used for immunoprecipitation were as follows: anti-E2F1 (C-20), anti-HA (16B12), anti-HP1α (NB110-40623, Novus Biologicals; RRID: AB_714949), anti-SUMO2/3 (8A2; Abcam; RRID: AB_1658424), non-specific rabbit or mouse IgG. The recovered DNA was analysed in triplicate by real-time QPCR as described (30, 31) on a MX3005P QPCR system using Brilliant III SYBR Green QPCR Master Mix according to the manufacturer's instructions. Results were expressed as average (mean) fold change compared to IgG control treatments using the ΔΔCt method from triplicate biological repeat samples. Alternatively, a standard curve was generated to calculate ChIP/input signals that were subsequently used to generate fold change values compared to IgG control. Error bars represent standard error unless otherwise indicated.

For a further assay, the system named is p73 transcripts. The assay is described as follows: RT-PCR of p73 transcripts in treated cells. Format: cell-based. The following applies: 5 μM; U2OS and HCT116 cells; FIG. 6A, FIGS. 10F and G. As for the experimental part:
A) U2OS cells were treated with 5 μM PRMT5 inhibitor (P5 inh) for 72 h where indicated, prior to ChIP analysis with anti-SUMO2/3 specific or control antibodies. Immunoprecipitated chromatin was analysed using primers specific for the E2F site in the p73 promoter (i). An RT-PCR was also performed to monitor the levels of p73 transcripts in the cell (ii). […] See also FIGS. 10F and 10G. F) U2OS cells were treated with 5 μM PRMT5 inhibitor (P5 inh) as indicated, prior to RNA extraction and qRT-PCR analysis with primers recognising total p73 or CDC6 transcripts as indicated (i). […] 1 μg of total RNA was used for cDNA synthesis. For standard mRNA analysis oligo(d)T20 (Invitrogen) was added. For splice variant analysis, RNA was DNAse treated (Sigma-Aldrich) prior to cDNA synthesis using random hexamers (Invitrogen). M-MLV reverse transcriptase (Promega) was used as per the manufacturer's instructions. qRT-PCR was carried out in triplicate using the indicated primer pairs and Brilliant III SYBR Green QPCR Master Mix (Stratagene) on an MX3005P (Agilent) QPCR instrument. Results were expressed as average (mean) fold change compared to control treatments using the ΔΔCt method from three biological repeat samples. GAPDH or actin primer sets were used as an internal calibrator. Error bars represent standard error unless otherwise indicated.

Another assay deals with Mantle Cell Lymphoma. Particulars: in vitro and in vivo models of Mantle Cell Lymphoma; cited from earlier work.
For assay [4], the system named is chromatin-associated SUMOylation on the p73 promoter. The assay is described as follows: ChIP with anti-SUMO2/3 antibody on the p73 promoter. Format: cell-based. The following applies: 5 μM, 72 h; U2OS cells; FIG. 6A. Here is the method:
as §1, with “A) U2OS cells were treated with 5 μM PRMT5 inhibitor (P5 inh) for 72 h where indicated, prior to ChIP analysis with anti-SUMO2/3 specific or control antibodies. Immunoprecipitated chromatin was analysed using primers specific for the E2F site in the p73 promoter (i). An RT-PCR was also performed to monitor the levels of p73 transcripts in the cell (ii). […] See also FIGS. 10F and 10G. ChIP was” for “ChIP was”

The target in the next assay is PRMT5 (Homo sapiens, UniProt O14744). Particulars: cited from earlier work.
Sequence of PRMT5 (O14744 whole entry): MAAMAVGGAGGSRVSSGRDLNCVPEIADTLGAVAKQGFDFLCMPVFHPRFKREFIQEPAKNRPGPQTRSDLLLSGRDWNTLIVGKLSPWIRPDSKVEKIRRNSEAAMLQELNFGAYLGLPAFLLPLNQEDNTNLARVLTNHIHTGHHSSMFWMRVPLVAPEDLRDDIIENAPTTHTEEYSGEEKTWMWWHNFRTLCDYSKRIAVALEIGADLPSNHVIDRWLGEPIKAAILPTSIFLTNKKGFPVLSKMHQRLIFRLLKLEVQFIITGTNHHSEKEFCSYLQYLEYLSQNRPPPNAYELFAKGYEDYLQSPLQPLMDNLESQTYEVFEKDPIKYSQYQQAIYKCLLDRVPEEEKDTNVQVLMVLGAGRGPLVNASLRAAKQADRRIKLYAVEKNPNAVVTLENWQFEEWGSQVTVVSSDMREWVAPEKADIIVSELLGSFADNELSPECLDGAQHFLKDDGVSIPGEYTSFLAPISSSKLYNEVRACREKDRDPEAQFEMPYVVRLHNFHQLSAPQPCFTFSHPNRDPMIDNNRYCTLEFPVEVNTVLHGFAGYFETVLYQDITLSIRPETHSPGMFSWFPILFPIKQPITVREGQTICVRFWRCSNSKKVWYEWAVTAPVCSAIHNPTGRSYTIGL
Sequence of PRMT5 (Q9BQA1 whole entry partner): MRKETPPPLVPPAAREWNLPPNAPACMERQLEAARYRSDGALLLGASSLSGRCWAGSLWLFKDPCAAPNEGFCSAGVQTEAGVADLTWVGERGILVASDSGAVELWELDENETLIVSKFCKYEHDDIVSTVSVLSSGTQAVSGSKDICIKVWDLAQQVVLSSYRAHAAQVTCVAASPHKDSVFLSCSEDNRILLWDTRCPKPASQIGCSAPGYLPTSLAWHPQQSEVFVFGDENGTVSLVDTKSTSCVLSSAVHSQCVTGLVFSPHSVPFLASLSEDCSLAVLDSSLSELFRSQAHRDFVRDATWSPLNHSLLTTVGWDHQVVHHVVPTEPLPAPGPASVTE

Entries after “also recorded” stand apart in the source; their conditions may differ.

As to `O=C(NC[C@H](O)CN1CCc2ccccc2C1)c1cc(NC2COC2)ncn1` [EPZ015666], the “interaction of snRNA with E2F1” value in assay [1] is listed as “absent”. In the assay with SENP7 RNA variants, the “level of the SENP7 V5 RNA variant” value is “lower level; also recorded: down-regulates” and the “level of the other SENP7 RNA variants” value is reported as “increased”. The “interaction between E2F1 and V5 RNA” value in assay [2] is “reduced”. For the same compound, the “association of HP1a with chromatin (p73 promoter)” value in assay [3] is listed as “increased association”. In the assay on p73 transcripts, the “levels of transcription (p73)” value is on record as “reduced levels”. Further, the antiproliferative effects result in the assay on Mantle Cell Lymphoma is recorded as “antiproliferative effects”. For the same compound, in assay [4], the “chromatin-associated SUMOylation on the p73 promoter” value is “increase”. The “inhibition of PRMT5” value on PRMT5 was “potent and selective inhibitor”.
